Test results from the supplement of paper PMC10733146.

Key:
Test in all cases: viability relative to DMSO control (fraction); higher = less drug effect (more viable cells)
Details in all cases: 48 h
[1] = compound: CC#CC(=O)N1CC[C@@H](n2c(=O)n(-c3ccc(Oc4ccccc4)cc3)c3c(N)ncnc32)C1 [ONO-4059]
Summary of the method: (§1)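 In 384-well plates with compounds pre-plated at five concentrations (one well per concentration), primary mononuclear tumour cells were plated at 4 × 10^4 cells per well. The cells came from blood or bone marrow by Ficoll isolation or from processed lymph node, and were used fresh or cryopreserved. Culture ran for 48 h at 37 °C and 5% CO2 in RPMI-1640 containing penicillin/streptomycin, L-glutamine and human serum. Viability was read as CellTiter-Glo luminescence, normalised to the median of 16 inner DMSO wells.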

[2] = compound: CC[C@H](NC(=O)[C@H](C)NC)C(=O)N1C[C@@H](O)C[C@H]1Cc1c(-c2[nH]c3cc(F)ccc3c2C[C@@H]2C[C@H](O)CN2C(=O)[C@H](CC)NC(=O)[C@H](C)NC)[nH]c2cc(F)ccc12 [Birinapant]
Summary of the method: as §1

[3] = compound: CN(C)C(=O)c1cc2cnc(Nc3ccc(N4CCNCC4)cn3)nc2n1C1CCCC1 [Ribociclib]
Summary of the method: as §1

[4] = compound: COC1=CC(c2cc3ccccc3[nH]2)=N/C1=C\c1[nH]c(C)cc1C [Obatoclax mesylate]
Summary of the method: as §1

[5] = compound: COc1c(Cl)cc2c([nH]c3cnccc32)c1NC(=O)c1cccnc1C [MLN-120B]
Summary of the method: as §1

[6] = compound: Cc1ccc(NC(=O)c2ccc(CN3CCN(C)CC3)cc2)cc1Nc1nccc(-c2cccnc2)n1 [Imatinib]
Summary of the method: as §1

[7] = compound: Cc1cn(-c2cc(NC(=O)c3ccc(C)c(Nc4nccc(-c5cccnc5)n4)c3)cc(C(F)(F)F)c2)cn1 [Nilotinib]
Summary of the method: as §1

[8] = compound: Cc1cc(Nc2cc(N3CCN(C)CC3)nc(Sc3ccc(NC(=O)C4CC4)cc3)n2)n[nH]1 [Tozasertib]
Summary of the method: as §1

[9] = compound: C#CCC(Cc1cnc2nc(N)nc(N)c2n1)c1ccc(C(=O)N[C@@H](CCC(=O)O)C(=O)O)cc1 [Pralatrexate]
Summary of the method: as §1

[10] = compound: CC(C)(C)OC(=O)Nc1ccc(-c2cc(C(=O)NCCCCCCC(=O)NO)no2)cc1
Summary of the method: as §1

[11] = compound: CCCS(=O)(=O)Nc1ccc(F)c(C(=O)c2c[nH]c3ncc(-c4ccc(Cl)cc4)cc23)c1F [Vemurafenib]
Summary of the method: as §1

[12] = compound: CCOc1cc(C(=O)N2CCC(N3CCN(C)CC3)CC2)ccc1Nc1ncc2c(n1)N(C1CCCC1)c1ccccc1C(=O)N2C [ERK5-IN-1]
Summary of the method: as §1

[13] = compound: CC[C@@H]1C(=O)N(C)c2cnc(Nc3ccc(C(=O)N[C@H]4CC[C@H](N5CCN(CC6CC6)CC5)CC4)cc3OC)nc2N1C(C)C [BI6727]
Summary of the method: as §1

[14] = compound: CC[C@]1(O)C[C@H]2CN(CCc3c([nH]c4ccccc34)[C@@](C(=O)OC)(c3cc4c(cc3OC)N(C=O)[C@H]3[C@@](O)(C(=O)OC)[C@H](OC(C)=O)[C@]5(CC)C=CCN6CC[C@]43[C@@H]65)C2)C1 [Vincristine]
Summary of the method: as §1

[15] = compound: Cc1[nH]c2ccccc2c1CCNCc1ccc(/C=C/C(=O)NO)cc1 [Panobinostat]
Summary of the method: as §1

[16] = compound: NC(=O)Nc1cc(-c2cccc(F)c2)sc1C(=O)N[C@H]1CCCNC1 [AZD7762]
Summary of the method: as §1

[17] = compound: Nc1nc(Cl)nc2c1ncn2[C@H]1C[C@H](O)[C@@H](CO)O1 [Cladribine]
Summary of the method: as §1

[18] = compound: O=C(CCCCCCC(=O)Nc1ccccc1)NO [Vorinostat]
Summary of the method: as §1

[19] = compound: O=C(NCC1(c2nc(-c3ccccc3)cs2)CCOCC1)c1cccc(-c2noc(C(F)(F)F)n2)c1 [TMP269]
Summary of the method: as §1

[20] = compound: OC[C@H]1O[C@@H](n2cnc3c2N=CNC[C@H]3O)C[C@@H]1O [Pentostatin]
Summary of the method: as §1

For primary AML patient cells (S007), the viability ([1]; 0.0016 µM) was 0.967, the viability ([1]; 0.008 µM) was 0.928 and the viability ([1]; 0.04 µM) was 0.962. For the same test system, the viability ([1]; 0.2 µM) was 1.03, the viability ([1]; 1 µM) was 0.804 and the viability ([2]; 0.0008 µM) was 0.866. The viability ([2]; 0.004 µM) was 0.744, the viability ([2]; 0.02 µM) was 0.573 and the viability ([2]; 0.1 µM) was 0.384. For the same test system, the viability ([2]; 0.5 µM) was 0.321, the viability ([3]; 0.024 µM) was 0.949 and the viability ([3]; 0.12 µM) was 0.904. For the same test system, the viability ([3]; 0.6 µM) was 0.766, the viability ([3]; 3 µM) was 0.308 and the viability ([4]; 0.024 µM) was 0.717. The viability ([4]; 0.12 µM) was 0.684, the viability ([4]; 0.6 µM) was 0.659 and the viability ([4]; 3 µM) was 0.254. The viability ([4]; 15 µM) was 0.0248, the viability ([5]; 0.024 µM) was 0.816 and the viability ([5]; 0.12 µM) was 0.781. The viability ([5]; 0.6 µM) was 0.728, the viability ([5]; 3 µM) was 0.605 and the viability ([5]; 15 µM) was 0.375. The viability ([6]; 0.016 µM) was 1.16, the viability ([6]; 0.08 µM) was 0.987 and the viability ([6]; 0.4 µM) was 1.08. It also gave a viability ([6]; 2 µM) of 0.765, a viability ([6]; 10 µM) of 0.319 and a viability ([7]; 0.016 µM) of 1.19. The viability ([7]; 0.08 µM) was 1.23, the viability ([7]; 0.4 µM) was 1.24 and the viability ([7]; 2 µM) was 1.04. The viability ([7]; 10 µM) was 1.31.
primary AML patient cells (S027) showed a viability ([1]; 0.0016 µM) of 0.958, a viability ([1]; 0.008 µM) of 1.06 and a viability ([1]; 0.04 µM) of 0.945. It also gave a viability ([1]; 0.2 µM) of 0.943, a viability ([1]; 1 µM) of 1.01 and a viability ([3]; 0.024 µM) of 1.02. The viability ([3]; 0.12 µM) was 1.03, the viability ([3]; 0.6 µM) was 1.03 and the viability ([3]; 3 µM) was 0.938. For the same test system, the viability ([3]; 15 µM) was 0.832, the viability ([8]; 0.024 µM) was 1.01 and the viability ([8]; 0.12 µM) was 0.906. The viability ([8]; 0.6 µM) was 0.93, the viability ([8]; 3 µM) was 0.881 and the viability ([6]; 0.016 µM) was 1.17. The viability ([6]; 0.08 µM) was 1.17, the viability ([6]; 0.4 µM) was 1.18 and the viability ([6]; 10 µM) was 1.05.
Work on primary AML patient cells (S044) yielded a viability ([6]; 0.08 µM) of 1.06, a viability ([6]; 0.4 µM) of 1 and a viability ([6]; 2 µM) of 0.924. It also gave a viability ([6]; 10 µM) of 0.823.
Work on primary AML patient cells (S054) yielded a viability ([6]; 0.016 µM) of 1.05, a viability ([6]; 0.08 µM) of 1.05 and a viability ([6]; 0.4 µM) of 1. For the same test system, the viability ([6]; 2 µM) was 0.962 and the viability ([6]; 10 µM) was 0.807.
For primary DLBCL patient cells (S049), the viability ([9]; 0.024 µM) was 1.02, the viability ([9]; 0.12 µM) was 0.803 and the viability ([9]; 0.6 µM) was 0.897. The viability ([9]; 3 µM) was 0.899, the viability ([9]; 15 µM) was 0.928 and the viability ([1]; 0.0016 µM) was 0.823. The viability ([1]; 0.008 µM) was 0.761, the viability ([1]; 0.04 µM) was 0.687 and the viability ([1]; 0.2 µM) was 0.716. For the same test system, the viability ([1]; 1 µM) was 0.649, the viability ([10]; 0.024 µM) was 0.925 and the viability ([10]; 0.12 µM) was 0.678. For the same test system, the viability ([10]; 0.6 µM) was 0.327, the viability ([10]; 3 µM) was 0.0379 and the viability ([10]; 15 µM) was 0.0222. It also gave a viability ([11]; 0.024 µM) of 0.847, a viability ([11]; 0.12 µM) of 0.935 and a viability ([11]; 0.6 µM) of 0.934. The viability ([11]; 3 µM) was 0.957, the viability ([11]; 15 µM) was 0.911 and the viability ([12]; 0.024 µM) was 1.04. For the same test system, the viability ([12]; 0.12 µM) was 1.04, the viability ([12]; 0.6 µM) was 0.717 and the viability ([12]; 3 µM) was 0.177. It also gave a viability ([12]; 15 µM) of 0.045, a viability ([13]; 0.024 µM) of 0.902 and a viability ([13]; 0.12 µM) of 0.898. It also gave a viability ([13]; 0.6 µM) of 0.711, a viability ([13]; 3 µM) of 0.228 and a viability ([13]; 15 µM) of 0.0414. The viability ([14]; 0.016 µM) was 0.123, the viability ([14]; 0.08 µM) was 0.101 and the viability ([14]; 0.4 µM) was 0.104. For the same test system, the viability ([14]; 2 µM) was 0.132, the viability ([14]; 10 µM) was 0.121 and the viability ([3]; 0.024 µM) was 1. It also gave a viability ([3]; 0.12 µM) of 1.02, a viability ([3]; 0.6 µM) of 0.976 and a viability ([3]; 3 µM) of 0.752. It also gave a viability ([3]; 15 µM) of 0.29, a viability ([4]; 0.024 µM) of 0.827 and a viability ([4]; 0.12 µM) of 0.773. The viability ([4]; 0.6 µM) was 0.538, the viability ([4]; 3 µM) was 0.343 and the viability ([4]; 15 µM) was 0.0387. It also gave a viability ([5]; 0.024 µM) of 0.954, a viability ([5]; 0.12 µM) of 0.902 and a viability ([5]; 0.6 µM) of 0.946. For the same test system, the viability ([5]; 3 µM) was 0.868, the viability ([5]; 15 µM) was 0.741 and the viability ([15]; 0.00064 µM) was 1.09. For the same test system, the viability ([15]; 0.0032 µM) was 0.896, the viability ([15]; 0.016 µM) was 0.0566 and the viability ([15]; 0.08 µM) was 0.0257. It also gave a viability ([15]; 0.4 µM) of 0.0265, a viability ([16]; 0.024 µM) of 0.697 and a viability ([16]; 0.12 µM) of 0.337. For the same test system, the viability ([16]; 0.6 µM) was 0.277, the viability ([16]; 3 µM) was 0.344 and the viability ([16]; 15 µM) was 0.163. It also gave a viability ([17]; 0.024 µM) of 0.918, a viability ([17]; 0.12 µM) of 0.853 and a viability ([17]; 0.6 µM) of 0.512. For the same test system, the viability ([17]; 3 µM) was 0.399, the viability ([17]; 15 µM) was 0.305 and the viability ([18]; 0.016 µM) was 0.996. The viability ([18]; 0.08 µM) was 0.899, the viability ([18]; 0.4 µM) was 0.797 and the viability ([18]; 2 µM) was 0.0724. It also gave a viability ([18]; 10 µM) of 0.0247, a viability ([19]; 0.024 µM) of 1.03 and a viability ([19]; 0.12 µM) of 1.08. For the same test system, the viability ([19]; 0.6 µM) was 1.1, the viability ([19]; 3 µM) was 1.01 and the viability ([19]; 15 µM) was 0.961. For the same test system, the viability ([20]; 0.03 µM) was 1.09, the viability ([20]; 0.15 µM) was 0.953 and the viability ([20]; 0.75 µM) was 1.02. The viability ([20]; 3.75 µM) was 0.907 and the viability ([20]; 18.76 µM) was 0.839.
